Measured values published in article PMC5111108, “An insecticide resistance-breaking mosquitocide targeting inward rectifier potassium channels in vectors of Zika virus and malaria” (Scientific Reports, 2016).

Experiments:
[1] = molecular target: T1, AeKir1 (Aedes aegypti, UniProt L0EQS9); assay: Tl+ flux assay, AeKir1; assay type: cell-based
T1 sequence (L0EQS9 1-486): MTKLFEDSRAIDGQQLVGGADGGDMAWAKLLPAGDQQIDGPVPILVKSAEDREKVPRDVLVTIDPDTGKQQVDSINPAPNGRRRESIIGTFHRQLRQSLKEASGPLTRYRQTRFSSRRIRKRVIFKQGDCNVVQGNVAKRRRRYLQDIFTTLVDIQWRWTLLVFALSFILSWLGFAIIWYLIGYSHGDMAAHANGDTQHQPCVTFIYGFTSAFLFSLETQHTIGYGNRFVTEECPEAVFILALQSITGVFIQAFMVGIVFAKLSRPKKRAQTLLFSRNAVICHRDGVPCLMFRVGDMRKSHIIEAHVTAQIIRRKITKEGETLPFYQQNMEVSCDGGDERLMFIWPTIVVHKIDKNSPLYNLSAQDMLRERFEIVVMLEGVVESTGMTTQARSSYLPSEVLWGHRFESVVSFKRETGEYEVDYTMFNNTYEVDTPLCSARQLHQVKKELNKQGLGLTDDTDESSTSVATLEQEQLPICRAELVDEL

[2] = molecular target: T2, Kir4.1 (Homo sapiens, UniProt P78508); assay: Tl+ flux assay, mammalian Kir4.1; assay type: cell-based
T2 construct: expressed in transfected cells
T2 sequence (P78508 1-379): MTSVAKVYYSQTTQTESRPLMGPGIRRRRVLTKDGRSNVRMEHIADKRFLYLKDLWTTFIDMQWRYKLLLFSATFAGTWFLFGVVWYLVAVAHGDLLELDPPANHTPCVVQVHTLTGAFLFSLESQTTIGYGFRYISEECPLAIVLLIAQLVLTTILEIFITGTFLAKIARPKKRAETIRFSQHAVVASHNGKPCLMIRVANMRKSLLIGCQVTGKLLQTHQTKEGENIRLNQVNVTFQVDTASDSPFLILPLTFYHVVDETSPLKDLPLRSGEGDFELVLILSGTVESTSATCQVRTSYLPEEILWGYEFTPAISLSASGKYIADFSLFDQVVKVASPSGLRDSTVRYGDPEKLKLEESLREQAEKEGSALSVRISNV

[3] = tested on: An. gambiae; assay: Fecundity (eggs laid) in An. gambiae; assay type: in vivo, Anopheles gambiae; details: VU041 ~1 μg/mg, VU937 ~10 μg/mg, topical within 1 h after engorgement, 72 h post blood feeding
Description: After treatment with the respective drugs, individual female mosquitoes were transferred to Drosophila vials (Fisher Scientific, Pittsburg, OA) containing 2 mL of water. The total number of eggs were counted 72-hours after being transferred to the vial. Any mosquitoes that died during this 72-hour period were excluded from the analysis. […] At least 25 female mosquitoes were used per replicate for each treatment group; each treatment was repeated on three separate broods, giving a total number of individuals studied ranging from 75–113 for each group.

`O=C(Cn1nc(C(F)(F)F)c2c1CCCC2)N1CCCc2ccccc21` [VU041, 1-(3,4-dihydroquinolin-1(2H)-yl)-2-(3-(trifluoromethyl)-4,5,6,7-tetrahydro-1H-indazol-1-yl)ethan-1-one] was tested, and the IC50 [1] was 1.7 µM, the inhibition at 30 µM [2] was less than 10% and the “median number of eggs laid per mosquito vs control” value [3] was “significantly lower median number of eggs per mosquito”.
